# From patent publication US20070231296A1, “Method of Combating Fruit Flies” (priority 2004, published 2007)
# How the values were obtained:
# [1] = tested on: Bactrocera tryoni; experiment: Large field cage trial with a paper mâché block containing fipronil plus Cue-lure; format: in vivo; conditions: field cage 4×4×2.5 m, single paper mâché block with 20 milligrams of fipronil plus Cue-lure per cage
# Excerpt: In a large field cage (4×4×2.5 m) trial, a single block of paper mâché containing 20 milligrams of fipronil plus Cue-lure was used per cage.
# After 2 days of exposure, over 90% mortality of male and female Bactrocera tryoni was achieved, after 3 days even over 95% mortality of males and females.
# Dead females were collected from the floor of the cage and dissected.
# [2] = tested on: fruit flies; experiment: Contact of male fruit flies with AMULET parapheromone stations and transfer to females; format: in vivo; conditions: AMULET station, 20 mg fipronil per station; depending on length of contact
# Procedure: AMULET™ parapheromone stations use fipronil at a very low concentration (20 mg per station) that has no repulsion to male flies landing on the device allowing them to freely imbibe from its surface and walk over it for long periods. Female fruit flies of the same species are not attracted by the pheromone and do no show any interest in the stations.
# Through this contact they contaminate the integument of the female that subsequently dies the following day.
compound,measurement,setting,value
N#Cc1nn(-c2c(Cl)cc(C(F)(F)F)cc2Cl)c(N)c1[S+]([O-])C(F)(F)F (stereo not drawn) [fipronil],mortality of male and female Bactrocera tryoni,[1]; after 2 days of exposure,over 90%
same,mortality of males and females,[1]; after 3 days,over 95%
same,time after contact until male fruit flies die,[2],3 to 48 h
